Experimental data reported in patent publication US12655116B2, “Substituted isophthalic acid diamides” (Bayer Aktiengesellschaft, priority 2020, dated 2026).

Key:
STEME [1] = assay: Post-emergence herbicidal action against STEME; format: in vivo, Stellaria media; details: Stellaria media, 504 h, 20 g/ha
In short: (§1)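 Foliar application at one-leaf stage of formulated test compounds, aqueous spray at 600–800 l/ha with 0.2% wetting agent. Greenhouse, optimal conditions, ~3 weeks; damage scored visually in % relative to untreated plants.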

VIOTR [2] = assay: Pre-emergence herbicidal action against VIOTR; format: in vivo, Viola tricolor; details: Viola tricolor, 504 h
In short: (§2)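 Greenhouse pots of sandy loam held seeds covered with soil, onto which the compound was applied before emergence. An aqueous suspension or emulsion of WP or EC was used at 600 to 800 l/ha with 0.2% wetting agent. Percent damage was judged visually at 3 weeks.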

VIOTR [3] = assay: Post-emergence herbicidal action against VIOTR; format: in vivo, Viola tricolor; details: Viola tricolor, 504 h
In short: as §1

ALOMY = assay: Pre-emergence herbicidal action against ALOMY; format: in vivo, Alopecurus myosuroides; details: Alopecurus myosuroides, 504 h; 80 g/ha, pre-emergence, scored visually after 3 weeks vs untreated controls (100% = plants have died, 0% = like control plants)
In short: as §2

VERPE [4] = assay: Post-emergence herbicidal action against VERPE; format: in vivo, Veronica persica; details: Veronica persica, 504 h, 20 g/ha
In short: as §1

ABUTH [5] = assay: Pre-emergence herbicidal action against ABUTH; format: in vivo, Abutilon theophrasti; details: Abutilon theophrasti, 504 h
In short: as §2

ECHCG [6] = assay: Post-emergence herbicidal action against ECHCG; format: in vivo, Echinochloa crus-galli; details: Echinochloa crus-galli, 504 h
In short: as §1

AMARE [7] = assay: Pre-emergence herbicidal action against AMARE; format: in vivo, Amaranthus retroflexus; details: Amaranthus retroflexus, 504 h, scored visually after 3 weeks vs untreated controls, 100% = plants have died, 0% = like control plants
In short: as §2

SETVI [8] = assay: Pre-emergence herbicidal action against SETVI; format: in vivo, Setaria viridis; details: Setaria viridis, 504 h, dosage 80 g/ha
In short: as §2

AMARE [9] = assay: Post-emergence herbicidal action against AMARE; format: in vivo, Amaranthus retroflexus; details: Amaranthus retroflexus, 504 h, 20 g/ha, visual assessment about 3 weeks after treatment, 100% = plants have died, 0% = like control plants
In short: as §1

DIGSA [10] = assay: Post-emergence herbicidal action against DIGSA; format: in vivo, Digitaria sanguinalis; details: Digitaria sanguinalis, 504 h
In short: as §1

AVEFA = assay: Pre-emergence herbicidal action against AVEFA; format: in vivo, Avena fatua; details: Avena fatua, 504 h; 80 g/ha, pre-emergence
In short: as §2

PHBPU [11] = assay: Pre-emergence herbicidal action against PHBPU; format: in vivo, Pharbitis purpurea; details: Ipomoea purpurea, 504 h, dosage 80 g/ha
In short: as §2

STEME [12] = assay: Pre-emergence herbicidal action against STEME; format: in vivo, Stellaria media; details: Stellaria media, 504 h
In short: as §2

LOLRI = assay: Pre-emergence herbicidal action against LOLRI; format: in vivo, Lolium rigidum; details: Lolium rigidum, 504 h, 80 g/ha
In short: as §2

VERPE [13] = assay: Pre-emergence herbicidal action against VERPE; format: in vivo, Veronica persica; details: Veronica persica, 504 h, dosage 80 g/ha
In short: as §2

ECHCG [14] = assay: Pre-emergence herbicidal action against ECHCG; format: in vivo, Echinochloa crus-galli; details: Echinochloa crus-galli, 504 h, 80 g/ha
In short: as §2

SETVI [15] = assay: Post-emergence herbicidal action against SETVI; format: in vivo, Setaria viridis; details: Setaria viridis, 504 h, dosage 20 g/ha
In short: as §1

MATIN [16] = assay: Post-emergence herbicidal action against MATIN; format: in vivo, Matricaria inodora; details: Tripleurospermum inodorum, 504 h
In short: as §1

MATIN [17] = assay: Pre-emergence herbicidal action against MATIN; format: in vivo, Matricaria inodora; details: Tripleurospermum inodorum, 504 h
In short: as §2

POLCO = assay: Pre-emergence herbicidal action against POLCO; format: in vivo, Polygonum convolvulus; details: Fallopia convolvulus, 504 h
In short: as §2

DIGSA [18] = assay: Pre-emergence herbicidal action against DIGSA; format: in vivo, Digitaria sanguinalis; details: Digitaria sanguinalis, 504 h
In short: as §2

PHBPU [19] = assay: Post-emergence herbicidal action against PHBPU; format: in vivo, Pharbitis purpurea; details: Ipomoea purpurea, 504 h
In short: as §1

ABUTH [20] = assay: Post-emergence herbicidal action against ABUTH; format: in vivo, Abutilon theophrasti; details: Abutilon theophrasti, 504 h, visual assessment about 3 weeks after treatment vs untreated controls
In short: as §1

Q: With `CCNC(=O)c1c(C(F)F)ccc(C(=O)Nc2nnnn2C)c1C` [Example 1-45] as the compound, how does the pest or weed control at 20 g/ha (STEME [1]) read?
A: The pest or weed control at 20 g/ha was 80%.

Q: What about the pest or weed control at 20 g/ha (VIOTR [2]; dosage 20 g/ha) of the same compound?
A: Its pest or weed control at 20 g/ha is 80%.

Q: What about the pest or weed control at 80 g/ha (VIOTR [2]; dosage 80 g/ha) of the same compound?
A: Its pest or weed control at 80 g/ha is 100%.

Q: And the pest or weed control at 5 g/ha (VIOTR [3]; 5 g/ha)?
A: The pest or weed control at 5 g/ha was 80%.

Q: What about the pest or weed control at 20 g/ha (VIOTR [3]; 20 g/ha) of the same compound?
A: Its pest or weed control at 20 g/ha is 90%.

Q: What about the pest or weed control at 80 g/ha (ALOMY) of the same compound?
A: The pest or weed control at 80 g/ha was 90%.

Q: And the pest or weed control at 20 g/ha (VERPE [4])?
A: The pest or weed control at 20 g/ha was 80%.

Q: And the pest or weed control at 80 g/ha (ABUTH [5]; 80 g/ha, scored visually after 3 weeks vs untreated controls (100% = plants have died, 0% = like control plants))?
A: Its pest or weed control at 80 g/ha is 100%.

Q: And the pest or weed control at 20 g/ha (ABUTH [5]; dosage 20 g/ha, scored visually after 3 weeks vs untreated controls, 100% = plants have died, 0% = like control plants, read-out: Pre-emergence action against ABUTH (herbicidal activity in percent))?
A: Its pest or weed control at 20 g/ha is 80%.

Q: And the pest or weed control at 5 g/ha (ECHCG [6]; dosage 5 g/ha)?
A: Its pest or weed control at 5 g/ha is 80%.

Q: And the pest or weed control at 20 g/ha (ECHCG [6]; dosage 20 g/ha)?
A: The pest or weed control at 20 g/ha was 80%.

Q: What about the pest or weed control at 20 g/ha (AMARE [7]; 20 g/ha) of the same compound?
A: Its pest or weed control at 20 g/ha is 100%.

Q: And the pest or weed control at 80 g/ha (AMARE [7]; 80 g/ha)?
A: Its pest or weed control at 80 g/ha is 100%.

Q: And the pest or weed control at 80 g/ha (SETVI [8])?
A: The pest or weed control at 80 g/ha was 100%.

Q: What about the pest or weed control at 20 g/ha (AMARE [9]) of the same compound?
A: The pest or weed control at 20 g/ha was 90%.

Q: And the pest or weed control at 5 g/ha (DIGSA [10]; 5 g/ha)?
A: The pest or weed control at 5 g/ha was 80%.

Q: And the pest or weed control at 20 g/ha (DIGSA [10]; 20 g/ha)?
A: The pest or weed control at 20 g/ha was 80%.

Q: What about the pest or weed control at 80 g/ha (AVEFA) of the same compound?
A: Its pest or weed control at 80 g/ha is 90%.

Q: And the pest or weed control at 80 g/ha (PHBPU [11])?
A: Its pest or weed control at 80 g/ha is 90%.

Q: And the pest or weed control at 20 g/ha (STEME [12]; dosage 20 g/ha)?
A: Its pest or weed control at 20 g/ha is 90%.

Q: And the pest or weed control at 80 g/ha (STEME [12]; dosage 80 g/ha)?
A: Its pest or weed control at 80 g/ha is 90%.

Q: What about the pest or weed control at 80 g/ha (LOLRI) of the same compound?
A: The pest or weed control at 80 g/ha was 80%.

Q: And the pest or weed control at 80 g/ha (VERPE [13])?
A: The pest or weed control at 80 g/ha was 90%.

Q: What about the pest or weed control at 80 g/ha (ECHCG [14]) of the same compound?
A: Its pest or weed control at 80 g/ha is 90%.

Q: What about the pest or weed control at 20 g/ha (SETVI [15]) of the same compound?
A: The pest or weed control at 20 g/ha was 80%.

Q: And the pest or weed control at 5 g/ha (MATIN [16]; dosage 5 g/ha)?
A: The pest or weed control at 5 g/ha was 80%.

Q: And the pest or weed control at 20 g/ha (MATIN [16]; dosage 20 g/ha)?
A: The pest or weed control at 20 g/ha was 80%.

Q: And the pest or weed control at 20 g/ha (MATIN [17]; dosage 20 g/ha)?
A: Its pest or weed control at 20 g/ha is 100%.

Q: And the pest or weed control at 80 g/ha (MATIN [17]; dosage 80 g/ha)?
A: The pest or weed control at 80 g/ha was 100%.

Q: What about the pest or weed control at 20 g/ha (POLCO; dosage 20 g/ha) of the same compound?
A: The pest or weed control at 20 g/ha was 90%.

Q: And the pest or weed control at 80 g/ha (POLCO; dosage 80 g/ha)?
A: Its pest or weed control at 80 g/ha is 90%.

Q: What about the pest or weed control at 20 g/ha (DIGSA [18]; dosage 20 g/ha) of the same compound?
A: The pest or weed control at 20 g/ha was 100%.

Q: What about the pest or weed control at 80 g/ha (DIGSA [18]; dosage 80 g/ha) of the same compound?
A: Its pest or weed control at 80 g/ha is 100%.

Q: And the pest or weed control at 5 g/ha (PHBPU [19]; dosage 5 g/ha)?
A: Its pest or weed control at 5 g/ha is 80%.

Q: And the pest or weed control at 20 g/ha (PHBPU [19]; dosage 20 g/ha)?
A: The pest or weed control at 20 g/ha was 80%.

Q: What about the pest or weed control at 5 g/ha (ABUTH [20]; dosage 5 g/ha) of the same compound?
A: The pest or weed control at 5 g/ha was 80%.

Q: And the pest or weed control at 20 g/ha (ABUTH [20]; dosage 20 g/ha)?
A: Its pest or weed control at 20 g/ha is 90%.
